Where “and” joins values, the source holds several entries; their conditions need not be identical. Identical values can stand only once. Entries after “also recorded” stand apart in the source; their conditions may differ.
Columns and labels:
[1] = clinical; conditions: human, in vivo
Text: The objective of this study was to evaluate the pharmacokinetics (PK) of LEN during oral bridging period (OBP) to assess the adequacy of 300-mg PO once-weekly (QW) regimen for maintaining therapeutic concentrations between missed SC LEN doses. During OBP, sparse PK samples were collected at the start of OBP and every ˜10-12 weeks (without regard to a prespecified time since dose) until SC LEN was resumed. LEN plasma concentrations were summarized during OBP in the CAPELLA (N=57) and CALIBRATE (N=82) studies.
Participants required oral weekly bridging if an SC injection of LEN could not be administered for any reason within the protocol visit window. If 26 to 28 weeks elapsed since the last SC injection, and if clinically appropriate to continue LEN, participants started oral LEN 300 mg (1 tablet) once a week at the oral bridging visit(s) and continued weekly dosing on the same day of the week. If more than 28 weeks elapsed since the last SC injection, and if clinically appropriate to continue LEN, participants restarted the oral lead-in at the oral bridging visits and continued oral weekly dosing on the same day of the week, until SC LEN was administered, as shown in Table 6.
Oral bridging day was calculated from first dose date of Oral Bridging.

[2] = tested on: HIV-1; assay: Efficacy of oral bridging (HIV-1 RNA, CD4), CALIBRATE; type: in vivo, human
Text: This Example describes results from a Phase 2 clinical study evaluating the safety and efficacy of LEN in combination with other antiretroviral (ARV) agents in ARV-naive people with HIV (PWH).
This Example describes a Phase 2, randomized, open-label, active-controlled, multicenter study. Participants in Treatment Groups 1 and 2 required oral bridging following a clinical hold imposed by the Food & Drug Administration on injectable LEN as the SC injection of LEN could not be administered within the protocol visit window. An Oral Bridging visit was completed every 10 to 12 weeks. Participants had to have met all of the inclusion criteria and none of the exclusion criteria to be included in the study.

[3] = Safety during oral bridging period, CAPELLA; type: in vivo
[4] = Safety data from all completed and ongoing clinical studies of LEN; type: in vivo, human; conditions: oral doses up to 1800 mg
Protocol: Lenacapavir has been administered orally at doses up to 1800 mg. […] Oral LEN was administered without regard to food.

[5] = Safety during oral bridging period, CALIBRATE
[6] = Safety during oral bridging, studies of Examples 4-5 together
[7] = po, Lower 90% CI of Concentration
[8] = po, Lower 90% CI of LEN concentration

In the case of `CC(C)(C#Cc1ccc(-c2ccc(Cl)c3c(NS(C)(=O)=O)nn(CC(F)(F)F)c23)c([C@H](Cc2cc(F)cc(F)c2)NC(=O)Cn2nc(C(F)(F)F)c3c2C(F)(F)[C@@H]2C[C@H]32)n1)S(C)(=O)=O` [LEN, N—((S)-1-(3-(4-chloro-3-(methylsulfonamido)-1-(2,2,2-trifluoroethyl)-1H-indazol-7-yl)-6-(3-methyl-3-(methylsulfonyl)but-1-yn-1-yl)pyridin-2-yl)-2-(3,5-difluorophenyl)ethyl)-2-((3bS,4aR)-5,5-difluoro-3-(trifluoromethyl)-3b,4,4a,5-tetrahydro-1H-cyclopropa [3,4]cyclopenta [1,2-c]pyrazol-1-yl) acetamide], the “Mean LEN concentration and lower bound 90% CI versus efficacy target IQ4” value [1] is reported as over 15.5 ng/mL, the “90% CI of mean LEN concentration” value ([1]; 10 week) is reported as 66.1, 86.3 and the “90% CI of mean LEN concentration” value ([1]; 20 week) is reported as 50.4, 99.3. The “90% CI of mean LEN concentration” value ([1]; 30 week) was 29.9, 53.5, the “90% CI of mean LEN concentration” value ([1]; 1 day) was 40.3, 51.9 and the concentration at 10 day ([1]; po, Concentration, Mean (% CV)) was 76.2 ng/mL. It also gave a concentration at 20 day ([1]; po, Concentration, Mean (% CV)) of 74.8 ng/mL, a concentration at 10 day [1, 7] of 66.1 ng/mL and a concentration at 20 day [1, 7] of 50.4 ng/mL. The concentration at 30 day [1, 7] was 29.9 ng/mL, the concentration at 10 week [1, 8] was 66.1 ng/mL and the concentration at 20 week [1, 8] was 50.4 ng/mL. The concentration at 30 week [1, 8] was 29.9 ng/mL, the concentration at 1 day [1, 8] was 40.3 ng/mL and the “CD4 count and CD4% during oral bridging (in words)” value [2] was “generally stable or slightly increasing”. The “Mean (SD) CD4 cell count at oral bridging baseline” value ([2]; LEN total group) was 762 (285.2) /μL, the “Mean CD4% at oral bridging baseline” value ([2]; LEN total group) was 34% and the “Proportion of participants with HIV-1 RNA<50 copies/mL” value (from here on “Proportion of participants”) ([2]; LEN total group, OB baseline) was 99.2%. For the same compound, the “Proportion of participants” value ([2]; Missing=Excluded, OB Week 10) was 77/77 (100) %, the “Proportion of participants” value ([2]; Missing=Excluded, OB Week 20) was 58/58 (100) % and the “Proportion of participants” value ([2]; Missing=Excluded, OB Week 30) was 5/5 (100) %. The “Proportion of participants” value ([2]; Missing=Excluded, all subsequent oral bridging time points, all treatment groups) was 100%, the “Proportion of participants” value ([2]; Missing=Failure, Week 10, LEN total) was 97.5% and the “Proportion of participants” value ([2]; Missing=Failure, Week 10, SC LEN total group) was 97.5%. For the same compound, the “Proportion of participants” value ([2]; Missing=Failure, Week 10, oral LEN group) was 97.4%, the “Proportion of participants” value ([2]; Missing=Failure, Week 20, LEN total) was 100% and the “Proportion of participants” value ([2]; Missing=Failure, Week 20, SC LEN total group) was 100%. The “Proportion of participants” value ([2]; Missing=Failure, Week 20, oral LEN group) was 100%, the “Mean CD4% at oral bridging baseline” value ([2]; SC LEN total group) was 35% and the “Proportion of participants” value ([2]; SC LEN total group (received OB), OB Baseline) was 100% and 82/82 (100) %. The “Mean change from oral bridging baseline in CD4%” value (“Mean change … in CD4%” for short) ([2]; Week 10, LEN total group) was 1%, the “Mean change from oral bridging baseline in CD4 cell count” value (“Mean change … in CD4 cell count” for short) ([2]; Week 10, LEN total group) was 35 µL⁻¹ and the “Mean change … in CD4%” value ([2]; Week 10, SC LEN total group) was 0%. For the same compound, the “Mean change … in CD4 cell count” value ([2]; Week 10, SC LEN total group) was 26 µL⁻¹, the “Mean change … in CD4%” value ([2]; Week 10, oral LEN group) was 1% and the “Mean change … in CD4 cell count” value ([2]; Week 10, oral LEN group) was 55 µL⁻¹. For the same compound, the “Mean change … in CD4%” value ([2]; Week 20, LEN total group) was 0%, the “Mean change … in CD4 cell count” value ([2]; Week 20, LEN total group) was 0 µL⁻¹ and the “Mean change … in CD4%” value ([2]; Week 20, SC LEN total group) was 0%. For the same compound, the “Mean change … in CD4 cell count” value ([2]; Week 20, SC LEN total group) was -31 µL⁻¹, the “Mean change … in CD4%” value ([2]; Week 20, oral LEN group) was 1% and the “Mean change … in CD4 cell count” value ([2]; Week 20, oral LEN group) was 106 µL⁻¹. For the same compound, the “Mean CD4% at oral bridging baseline” value ([2]; oral LEN group) was 33%, the “Proportion of participants” value ([2]; oral LEN group, OB baseline) was 97.4% and the “Virologic suppression / virologic failure during oral bridging (in words)” value ([2]; treatment-naive participants) was “remained virologically suppressed; also recorded: No treatment-naive participants from the study described in Example 4 experienced virologic failure”. The “Discontinuation of study drug due to a TEAE” value [3] was “No participant discontinued study drug due to a TEAE”, the “Participants with Grade 2 or higher TEAEs” value [3] was 26.3% and the Treatment-related asthenia [3] was 1.8%. For the same compound, the Treatment-related diarrhea [3] was 3.5%, the Treatment-related nausea [3] was 1.8% and the “Grade 5 TEAE of death” value ([3]; 1 participant, considered unrelated to study drug) was 1.8%. For the same compound, the “Participants with treatment-related TEAEs” value ([3]; all Grade 1) was 3.5%, the “AE of death leading to discontinuation of the study” value ([3]; one participant) was 1.8% and the “Changes from baseline in hematology and clinical chemistry” value ([3]; oral bridging period) was “no clinically relevant changes from baseline in hematology and clinical chemistry parameters; also recorded: no clinically relevant changes from baseline in median values for hematology and clinical chemistry”. The “Changes from baseline in vital signs” value ([3]; oral bridging period) was “no clinically relevant changes from baseline in vital signs”, the “Overall safety and tolerability of oral LEN” value ([3]; oral bridging period) was “generally safe and well tolerated” and the “Participants with Grade 1 TEAEs” value ([3]; oral bridging period) was 22.8%. For the same compound, the “Participants with Grade 2 TEAEs” value ([3]; oral bridging period) was 24.6%, the “TEAE COVID-19” value ([3]; oral bridging period) was 7.0% and the TEAE cough ([3]; oral bridging period) was 5.3%. For the same compound, the TEAE diarrhea ([3]; oral bridging period) was 5.3%, the “TEAE upper respiratory tract infection” value ([3]; oral bridging period) was 5.3% and the “Participants who experienced TEAEs” value ([3]; oral bridging period, 57 participants) was 49.1%. The “Overall safety and tolerability” value [4] was “generally safe and well tolerated at the intended exposures”, the “Changes from oral bridging baseline in blood pressure, pulse, respiration rate, body temperature” value [5] was “no clinically relevant changes from oral bridging baseline” and the Treatment-related diarrhea ([5]; 1 participant) was 1.2%. The “Grade 3 or higher blood creatine phosphokinase increased” value ([5]; 2 participants, both in oral LEN group) was 1.7%, the “Participants with Grade 3 events” value ([5]; LEN total group) was 2.5% and the “Participants with Grade 3 or higher AEs” value ([5]; LEN total group) was 5.0%. For the same compound, the “Participants with Grade 4 events” value ([5]; LEN total group) was 2.5%, the “TEAE COVID-19” value ([5]; LEN total group) was 5.8% and the TEAE influenza ([5]; LEN total group) was 7.4%. The TEAE nasopharyngitis ([5]; LEN total group) was 5.0%, the TEAE syphilis ([5]; LEN total group) was 5.0% and the “Participants with any AE” value ([5]; LEN total group (121)) was 62.8%. The “Participants with AEs related to study drug” value (shortened to “Participants with AEs related”) ([5]; LEN total group, all Grade 1) was 3.3%, the “Participants with serious AEs” value ([5]; LEN total group, not related to study drug) was 2.5% and the AE oropharyngeal pain ([5]; SC LEN total group) was 4.9%. The “Participants with AEs related” value ([5]; SC LEN total group) was 3.7%, the “Participants with Grade 3 events” value ([5]; SC LEN total group) was 1.2% and the “Participants with Grade 3 or higher AEs” value ([5]; SC LEN total group) was 3.7%. The “Participants with Grade 4 events” value ([5]; SC LEN total group) was 2.4%, the “Participants with any AE” value ([5]; SC LEN total group) was 64.6% and the “Participants with serious AEs” value ([5]; SC LEN total group) was 2.4%. For the same compound, the “TEAE COVID-19” value ([5]; SC LEN total group) was 4.9%, the TEAE influenza ([5]; SC LEN total group) was 8.5% and the TEAE nasopharyngitis ([5]; SC LEN total group) was 4.9%. For the same compound, the TEAE syphilis ([5]; SC LEN total group) was 4.9%, the “Changes from oral bridging baseline in hematology or clinical chemistry” value ([5]; any treatment group) was “no clinically relevant changes from oral bridging baseline in median values for hematology or clinical chemistry parameters” and the AE arthralgia ([5]; oral LEN group) was 5.1%. The “AE blood creatine phosphokinase increase” value ([5]; oral LEN group) was 5.1%, the AE dyslipidemia ([5]; oral LEN group) was 5.1% and the “AE oropharyngeal gonococcal infection” value ([5]; oral LEN group) was 5.1%. For the same compound, the “Participants with AEs related” value ([5]; oral LEN group) was 2.6%, the “Participants with Grade 3 events” value ([5]; oral LEN group) was 5.1% and the “Participants with Grade 3 or higher AEs” value ([5]; oral LEN group) was 7.7%. For the same compound, the “Participants with Grade 4 events” value ([5]; oral LEN group) was 2.6%, the “Participants with any AE” value ([5]; oral LEN group) was 59.0% and the “Participants with serious AEs” value ([5]; oral LEN group) was 2.6%. The “TEAE COVID-19” value ([5]; oral LEN group) was 7.7%, the TEAE influenza ([5]; oral LEN group) was 5.1% and the TEAE nasopharyngitis ([5]; oral LEN group) was 5.1%. For the same compound, the TEAE syphilis ([5]; oral LEN group) was 5.1%, the “AEs leading to premature discontinuation of study drug or study” value ([5]; oral bridging period) was “no TEAEs which led to a premature discontinuation of study drug or from the study were reported; also recorded: no AEs that led to premature discontinuation of study drug or from the study were reported” and the Deaths ([5]; oral bridging period) was “No deaths were reported”. The “Overall safety and tolerability of oral LEN” value ([5]; oral bridging period) was “generally safe and well tolerated”, the “Overall safety and tolerability of oral bridging LEN 300 mg weekly” value ([6]; HTE and treatment-naive PWH) was “generally safe and well tolerated” and the “Study drug-related SAEs” value ([6]; oral bridging period) was “no study drug-related SAEs”.

Source: patent US20240390349A1, “DOSING REGIMEN OF CAPSID INHIBITOR” (priority 2023, published 2024)
